Test results: patent US20240368668A1, “SUBSTRATES AND BIOMARKERS OF ADAMTS7” (The Broad Institute, Inc., priority 2021, published 2024)
Square brackets hold non-standard residues; d marks the D form. Ends that are not written are not given here.

Legend:
[1] = tested on: mouse ADAMTS7; test: TMT10 TAILS N-terminomics, SMC2 experiment (process replicates, trypsin/AspN digest); type: cell-based; details: SMC2_TAILS HC
Excerpt: ADAMTS7 Expression, Cell Culture and Preparation of the Secreted Proteins—Full-length mouse Adamts7 1-1857 (Uniprot Q68SA9, WT or E373Q catalytic mutant) with a carboxyl terminal 3xFLAG tag was used to generate custom adenoviruses as previously described. Adeno-CMV-Luciferase (Ad-Luc) from Vector Biolabs was used as a negative control. Human Coronary Artery Smooth Muscle Cells (HCA-SMC) were obtained from Lonza and expanded in Lonza SmGM-2 media in 15 cm tissue culture plates. Twenty-four hours before media collection, near confluent plates were transduced with 50 MOI adenovirus and switched to Lonza Basal SM media with volumes of 20 ml per 15 cm plate. Expression of the Flag tagged ADAMTS7 was confirmed from the media using western blot and detected using the anti-Flag M2-HRP antibody (Sigma, A8592). Collected media was processed by adding protease inhibitors (1 mM EDTA and 1 mM PMSF) and clarified by 500 g×5 min spin at 4 C to pellet cell debris. Cell media supernatants were then passed through a 0.22 um filter and kept chilled. Processed media was then concentrated 50-100× using 3 kDa Centricon Plus-70 filter unit, spun at 3,500 g×60 min at 4 C. Approximately 10% of the processed, concentrated media was set aside for total secretome proteolytic analysis. The remaining 90% of the processed, concentrated media was buffer exchanged into 50 mM HEPES pH 8.0, 150 mM NaCl (2×50 ml) using the 3 kDa Centricon Plus-70 filter unit and concentrated to >2 mg/ml to serve as input for the TAILS experiment. Secretome and TAILS input samples were stored at −80° C.
For the first experiment, referred to as SMC1, 120 ml of media from 6×15 cm dishes was pooled from each condition (Luc, WT, EQ) and processed to produce three separate inputs for the TAILS experiment. Luc, WT and EQ inputs from the SMC1 experiment were each divided into triplicate 400 ug samples to generate technical replicate TAILS data. For the second experiment, referred to as SMC2, media was processed separately in triplicate for each condition (Luc1, Luc2, Luc3, WT1, WT2, WT3, EQ1, EQ2, EQ3) using 60 ml of media from 3×15 cm dishes for each process replicate. Inputs from the SMC2 experiment used process replicates of 300 ug each to generate TAILS data. The third experiment used input from cultured Human umbilical vein endothelial cells (HUVEC) from Lifeline Cell Technology grown in VascuLife Media and transduced in Lifeline Basal EC (+bFGF2 10 ng/ml). The HUVEC experiment used the same strategy as the SMC2 experiment, with 40 ml of media from 2×15 cm dishes for each process replicate and used 200 ug each to generate TAILS data. Inputs for process replicate experiments were restricted to the lowest concentration from the 9 parallel samples for SMC2 or HUVEC.
TMT10 isotopic labeling and negative selection of non-labeled peptides-Sample preparation was performed based on the TAILS protocol from the Overall lab with some modifications. From a single experiment, nine parallel protein samples in 50 mM HEPES pH 8.0, 150 mM NaCl were separately denatured with guanidinium chloride (Sigma, G4505) to reach a final concentration of 2.5M guanidinium chloride and 250 mM HEPES and incubated at 65° C. for 15 min. Reduction was achieved through addition of tris(2-carboxylethyl) phosphine (TCEP) at a final concentration of […] and incubated at 65° C. for 45 min. Alkylation reaction was performed with addition of iodoacetamide (IAA, Sigma, A3221) to a final concentration of 10 mM IAA for 15 min at room temperature in the dark. Following denaturation, reduction and alkylation steps, ten percent of each of the nine parallel protein samples was removed and combined to serve as a pooled reference. Isobaric tags were added to free amine groups using the TMT10plex Isobaric Mass Tagging Kit (ThermoFisher, 90113) with TMT channels randomly assigned to the nine samples and TMT 131 assigned to the pooled reference. […]

[2] = tested on: mouse ADAMTS7; test: TMT10 TAILS N-terminomics, SMC1 experiment (Ad-mADAMTS7 WT vs EQ vs Luc, technical replicates, trypsin digest); type: cell-based; details: TAILS neo-N-terminal peptide abundance; log fold change, Ad-mADAMTS7 WT over EQ
In short: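 Full-length mouse ADAMTS7 (WT or E373Q mutant, C-terminal 3xFLAG) or luciferase was transduced via adenovirus, 50 MOI, into HCA-SMC (SMC1, SMC2) or HUVEC. SMC1: pooled media, technical triplicates 400 ug; SMC2: process triplicates 300 ug; HUVEC: process triplicates 200 ug, bFGF2 10 ng/ml.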

[3] = log fold change of N-terminal peptide, Ad-mADAMTS7 WT over EQ

Substance	logFC.mWT.over.mEQ ([1]; log fold change, mWT over mEQ)	logFC.mWT.over.mEQ [2]	logFC.mWT.over.mEQ [1, 3]
HSPG2_2331 (ANLAYPAGSTQPIR; listed as Homo sapiens)	1.91	2.04	–
LTBP1_393 (LTATNFR; listed as Homo sapiens)	–	3.89	6.30
GSN_413 (HIANVER; listed as Homo sapiens)	1.74	2.19	–
FLNA_1285 (LTQTGGPHVKAR; listed as Homo sapiens)	5.72	5.06	–
LOXL2_38 ([code q]QPAPEYHQPQAPANVAKIQLR; not fully specified; listed as Homo sapiens)	–	1.26	1.68
FN1_1143 (LTPGVEYVYTIQVLR; listed as Homo sapiens)	2.80	0.86	–
LOX_123 (HWFQAGYSTSR; listed as Homo sapiens)	1.37	1.82	–
HSPG2_2333 (LAYPAGSTQPIR; listed as Homo sapiens)	1.41	1.92	–
FN1_40 (QSPVAVSQSKPGCYDNGKHYQINQQWER; listed as Homo sapiens)	2.66	4.27	–
FBLN2_260 (LGPPAPVQAKAR; listed as Homo sapiens)	2.42	4.21	–
FBN1_53 (LKGPNVCGSR; listed as Homo sapiens)	4.89	4.93	–
IGFBP7_101 (AAGGPGVSGVCVCKSR; listed as Homo sapiens)	2.57	3.69	–
LOX_124 (WFQAGYSTSR; listed as Homo sapiens)	3.45	3.62	–
AEBP1_37 (FLEGFLSELEPEPR; listed as Homo sapiens)	3.48	3.41	–
LTBP1_540 (HQQVIPHVYPVAAKTQLGR; listed as Homo sapiens)	–	2.70	1.77
IGFBP3_31 (SAGLGPVVR; listed as Homo sapiens)	2.44	2.49	–
LOX_126 (QAGYSTSR; listed as Homo sapiens)	3.03	1.59	–
